The record followed here is PubChem BioAssay AID743413 (Broad Institute, 2014).

Activity calls are given as the source filed them.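 The calls were made as follows: active = compounds lowering cell ATP signal with a fitted AC50 at or below twice their top tested dose; inconclusive = flat curve between 30% and 70% loss, or poor fit; inactive = the rest.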

For the first test, the system named is A549 viability, CellTiter-Glo ATP luminescence, 72 h. The test can be described thus: A549 cell cytotoxicity, dose response, cytotoxicity control, plate reader, dry powder, set 11 (AID 743413).
Conditions: not given
For the molecule `CCN1CCCC1CNC(=O)CSc1c2c(nc3ccc(Cl)cc13)CCCC2` (stereo unspecified), the AC50 was 16.2 µM.

`Cc1ccc(CNC(=O)CSc2c3c(nc4ccc(Cl)cc24)CCCC3)cc1`: the AC50 was > 52 µM (inactive).

As for `O=C(CSc1c2c(nc3ccc(Cl)cc13)CCCC2)N1CCCCC1`, the AC50 was > 52 µM (inactive).

Take `Cc1cccc(CCNC(=O)CSc2c3c(nc4ccc(Cl)cc24)CCCC3)c1`: the AC50 was > 52 µM (inactive).

Consider `O=C(CSc1c2c(nc3ccc(Cl)cc13)CCCC2)N1CCC(N2CCCCC2)CC1`, for which the AC50 is 26.6 µM.

As for `O=C(CSc1c2c(nc3ccc(Cl)cc13)CCCC2)Nc1ccccc1`, the AC50 is > 52 µM (inactive).

With `O=C(CSc1c2c(nc3ccc(Cl)cc13)CCCC2)NCCN1CCN(Cc2ccccc2)CC1`, the AC50 is 26.7 µM.

As to `O=C(CSc1c2c(nc3ccc(Cl)cc13)CCCC2)NCc1cccs1`, the AC50 was > 52 µM (inactive).

As for `O=C(CSc1c2c(nc3cc(Cl)ccc13)CCCC2)N(Cc1ccco1)C1CCCC1`, the AC50 is > 52 µM (inactive).

With `O=C(CSc1c2c(nc3ccc(Cl)cc13)CCCC2)NCCCc1ccccc1`, the AC50 was > 52 µM (inactive).

Regarding `O=C(CSc1c2c(nc3ccc(Cl)cc13)CCCC2)NCc1ccc2c(c1)OCO2`, the AC50 is > 52 µM (inactive).

For the molecule `O=C(CSc1c2c(nc3ccc(Cl)cc13)CCCC2)NC1CC1`, the AC50 is > 52 µM (inactive).

`COc1ccc(NC(=O)CSc2c3c(nc4ccc(Cl)cc24)CCCC3)cc1`: the AC50 was > 52 µM (inactive).

Take `COc1ccc(CNC(=O)CSc2c3c(nc4ccc(Cl)cc24)CCCC3)cc1`: the AC50 was > 52 µM (inactive).

System in another test: not listed separately
Described as above. The conditions noted are these: A549 viability, CellTiter-Glo ATP luminescence, 72 h; at 12 µM (top of the series).
Turning to `COCCN(Cc1ccco1)C(=O)CSc1c2c(nc3cc(Cl)ccc13)CCCC2`, the activity change, negative = cytotoxicity was -3.68% (inactive).

On to `COc1cc(CNCCCN2CCOCC2)ccc1OCC(=O)Nc1cccc(C(F)(F)F)c1`, for which the activity change, negative = cytotoxicity was 7.4% (inactive).

The test is the same for the next values; noted with them: A549 viability, CellTiter-Glo ATP luminescence, 72 h; at 26 µM (top of the series).
Take `CCCCOc1ccc(NC(=O)COc2ccccc2C(=O)NCCOc2ccccc2)cc1`: the activity change, negative = cytotoxicity is -9.94% (inactive).

For the molecule `COC(=O)CCCN(C)C(=O)c1ccc(OCC(=O)Nc2cccc(OC)c2)cc1`, the activity change, negative = cytotoxicity was -0.651% (inactive).

Regarding `O=C(COc1ccccc1C(=O)NCCOc1ccc(Cl)cc1)Nc1cccc(Cl)c1`, the activity change, negative = cytotoxicity is -15.3% (inactive).

For the molecule `O=C(COc1ccc(C(=O)N2CCN(C(=O)C3CC3)CC2)cc1)Nc1cccc(C(F)(F)F)c1`, the activity change, negative = cytotoxicity is -1.09% (inactive).

Regarding `CCOC(=O)C1CCN(C(=O)c2ccc(OCC(=O)N3CCOCC3)c(OC)c2)CC1`, the activity change, negative = cytotoxicity was -3.29% (inactive).

Turning to `CN(CCNC(=O)CSc1c2c(nc3ccc(Cl)cc13)CCCC2)Cc1ccccc1`, the activity change, negative = cytotoxicity is -8.03% (inactive).

Turning to `CCN(CC)C(=O)CSc1c2c(nc3ccc(Cl)cc13)CCCC2`, the activity change, negative = cytotoxicity is -10.9% (inactive).

`CN(C(=O)COc1ccc(Cl)cc1C(N)=O)c1ccccc1`: the activity change, negative = cytotoxicity was 2.07% (inactive).

Regarding `CN(C(=O)COc1ccccc1C(N)=O)c1ccccc1`, the activity change, negative = cytotoxicity was -1.13% (inactive).

With `O=C(COc1ccccc1C(=O)NCc1ccccc1)Nc1ccccc1`, the activity change, negative = cytotoxicity was -5.99% (inactive).

For the molecule `O=C(COc1ccc(C(=O)NCC2CCCO2)cc1)Nc1cccc(C(F)(F)F)c1` (stereo unspecified), the activity change, negative = cytotoxicity was 1.08% (inactive).

On to `O=C(CSc1c2c(nc3ccc(Cl)cc13)CCCC2)N1CCNC1=O`, for which the activity change, negative = cytotoxicity is -13.8% (inactive).

Take `CCOC(=O)C1CCN(C(=O)c2ccc(OCC(=O)Nc3ccc(OCC)cc3)c(OC)c2)CC1`: the activity change, negative = cytotoxicity was 5.86% (inactive).

Consider `O=C(CSc1c2c(nc3ccc(Cl)cc13)CCCC2)NC1CCCC1`, for which the activity change, negative = cytotoxicity is -25.2% (inactive).

In the case of `O=C(CSc1cccc2cccnc12)NCc1ccco1`, the activity change, negative = cytotoxicity was -1.12% (inactive).

For the molecule `Cn1cc(SCC(=O)NCc2ccco2)c2ccccc21`, the activity change, negative = cytotoxicity was -0.441% (inactive).

With `Cc1ccc(NC(=O)COc2ccccc2C(=O)NCCN(C)C)cc1`, the activity change, negative = cytotoxicity is -4.77% (inactive).

As for `Cc1ccc2nc(Cl)cc(SCC(=O)NCc3ccco3)c2c1`, the activity change, negative = cytotoxicity is -7.2% (inactive).

Turning to `O=C(CSc1c2c(nc3ccc(Cl)cc13)CCCC2)NCC1(c2ccccc2)CCCC1`, the activity change, negative = cytotoxicity is -1.8% (inactive).

Take `Cn1c(=O)cc(SCC(=O)NCc2ccco2)c2ccccc21`: the activity change, negative = cytotoxicity is 5.32% (inactive).

For the molecule `NC(=O)C1CCN(C(=O)c2ccc(OCC(=O)Nc3cccc(C(F)(F)F)c3)cc2)CC1`, the activity change, negative = cytotoxicity is 8.43% (inactive).

For `O=C(COc1ccc(C(=O)NC2CCCCC2)cc1)Nc1cccc(C(F)(F)F)c1`, the activity change, negative = cytotoxicity is -0.017% (inactive).

Regarding `CCOC(=O)N1CCC(NC(=O)CSc2c3c(nc4ccc(Cl)cc24)CCCC3)CC1`, the activity change, negative = cytotoxicity is -13.1% (inactive).

Turning to `CC1(C)CC(NC(=O)c2ccc(OCC(=O)Nc3cccc(C(F)(F)F)c3)cc2)CC(C)(C)N1`, the activity change, negative = cytotoxicity is -14.3% (inactive).

As to `O=C(O)CSc1c2c(nc3cc(C(=O)NCc4cccs4)ccc13)CCCC2`, the activity change, negative = cytotoxicity is -2.24% (inactive).

Turning to `CN(C)c1ccc(NC(=O)COc2ccccc2C(=O)N2CCOCC2)cc1`, the activity change, negative = cytotoxicity is -1.46% (inactive).

Turning to `CN(CCOc1ccccc1)C(=O)c1ccc(OCC(=O)Nc2cccc(C(F)(F)F)c2)cc1`, the activity change, negative = cytotoxicity is 0.912% (inactive).

Take `CN(C(=O)COc1ccccc1C(=O)Nc1ccccc1)c1ccccc1`: the activity change, negative = cytotoxicity was -12% (inactive).

`O=C(CSc1ccc2ccccc2n1)NCc1ccco1`: the activity change, negative = cytotoxicity is -6.75% (inactive).

With `CC(Sc1c2c(nc3ccc(Cl)cc13)CCCC2)C(=O)NCc1ccco1` (stereo unspecified), the activity change, negative = cytotoxicity is -8.08% (inactive).

For the molecule `COc1ccc(OCCNC(=O)c2ccccc2OCC(=O)Nc2ccc(NC(C)=O)cc2)cc1`, the activity change, negative = cytotoxicity was -14.7% (inactive).

On to `CCOc1ccc(NC(=O)COc2ccc(C(=O)N3CCC(C(N)=O)CC3)cc2OC)cc1`, for which the activity change, negative = cytotoxicity was -3.38% (inactive).

For the molecule `COc1cc(C(=O)NCCCN(C)C)ccc1OCC(=O)Nc1cccc(C(F)(F)F)c1`, the activity change, negative = cytotoxicity was -6.69% (inactive).

Take `O=C(COc1ccc(C(=O)N2CCC2)cc1)Nc1cccc(C(F)(F)F)c1`: the activity change, negative = cytotoxicity was 2.9% (inactive).

On to `COc1ccc(N(Cc2cccs2)C(=O)COc2ccccc2C(=O)Nc2ccccc2)cc1`, for which the activity change, negative = cytotoxicity is -14% (inactive).
